The values that follow come from patent publication US10640441B2, “Difluorinated compounds as depigmenting or lightening agents” (TFCHEM, priority 2016, dated 2020).

Structures are written as SMILES. Values joined by “and” are separate entries in the source; they are usually repeats but may differ in a detail not shown here. Identical values can stand only once.

One data set concerns NHEM culture. Briefly: Determination of the higher non-cytotoxic concentration on NHEM culture. The class given is cell-based, human. The procedure:
The compounds have been tested beforehand at different concentrations on the NHEM culture to determine the higher non-cytotoxic concentration to be used to evaluate the potential inhibition of melanin synthesis. The determined concentration was 300 μM for all compounds: 8, 16, 28a.

The test system of data set [1] is normal human epidermal melanocytes (NHEM). The experiment in a line: Inhibition of melanin synthesis in L-tyrosine-stimulated human epidermal melanocytes. In kind it is cell-based. Particulars: 300 μM; stimulation by L-tyrosine (1 mM); 240 hours; n=3. The protocol: Human melanocytes are stimulated by L-tyrosine to induce an increase of the melanin synthesis and be able to measure an inhibition of this synthesis when a whitening agent is added.
Biological model: normal human epidermal melanocytes (NHEM), lightly pigmented, were cultured in medium M254 supplemented with PMA free HMGS-2; Insulin 5 ag/ml; Penicillin 50 U/ml; Streptomycin 50 ag/ml; Gentamycin 25 μg/ml (incubator: 37° C. and 5% CO2).
Culture and treatment: melanocytes were seeded in 24-well plates and cultured in culture medium for 24 hours. The medium was then replaced by culture medium containing the test compounds or not (stimulated control) in presence of the inducer (L-tyrosine at 1 mM). The cells were then incubated for 240 hours with 2 treatment renewals after 72 and 168 hours of incubation. A non-stimulated control was performed in parallel. All experimental conditions were performed in n=3.
Melanin assay: at the end of incubation, the culture supernatants were removed and the melanin was extracted by cell lysis using a 0.5 N NaOH solution. The optical density (OD) of each experimental point was measured at 405 nm and melanin quantity was calculated using melanin standards (standard curve 0.39 to 100 μg/ml melanin). Results were expressed in […] of melanin.

The test system of the next data set is human tyrosinase. Briefly: Inhibition of human tyrosinase in-tubo (HumanLike Tyrosinase Assay kit, Feldan). The class given is biochemical. Particulars: 1.12 mM. The protocol: The efficacy of compound 8 was evaluated by the inhibition of human tyrosinase in-tubo and compared to the prior art compound deoxyarbutin.
The assay was performed with a ready-to-use kit from Feldan Inc (Canada): the HumanLike Tyrosinase Assay kit (ref A021-a-001Kit).
The protocol was performed as described in the instructions for use of the manufacturer. Briefly, this kit is intended for the determination of human tyrosinase activity in presence of different inhibitors. The kit measures the conversion of L-Tyrosine into a dopachrome complex absorbing at 490 nm. The time course of the assay is 20 minutes, after which the results are analyzed and compared.
The compound 8 and deoxyarbutin have been tested at a final concentration of 1.12 mM. The measured absorbances at 490 nm are reported in the table 1 and plotted in function of time in the FIG. 1.
Moreover for each compound the efficacy as tyrosinase inhibitor was calculated using the following formula: […]

In the case of `N[C@@H]1CCCC(F)(F)[C@@H]1Oc1ccc(O)cc1` [Compound 28a], the higher non-cytotoxic concentration in the data set with NHEM culture came out at 300 µM. Also, in data set [1], the “Melanin synthesis (μg/ml), single replicates” value (“Melanin synthesis (μg/ml)” for short) was 9.9 µg/mL and 10.5 µg/mL and 10.2 µg/mL; the “Melanin synthesis, Mean” value amounted to 10.2 µg/mL.

As to `Oc1ccc(O[C@@H]2[C@H](O)[C@@H](O)CCC2(F)F)cc1` [Compound 8], in the data set with human tyrosinase (T = 20 min), the “Inhibitor efficacy (%)” value is on record as 32.0%. Also, in the data set on human tyrosinase (T = 20 min), the “times better efficacy than deoxyarbutin on human tyrosinase inhibition” value turned out to be 3.4 times. Besides, the “OD at 490 nm” value in the data set with human tyrosinase (time 0 min) worked out at 0.0000; in the data set on human tyrosinase (time 1 min), 0.0080; in the data set with human tyrosinase (time 2 min) it was 0.0170; in the data set on human tyrosinase (time 3 min), 0.0245; with human tyrosinase (time 4 min) it was 0.0345; with human tyrosinase (time 5 min), 0.0415. Besides, the “OD at 490 nm” value worked out at 0.0505 with human tyrosinase (time 6 min); 0.0610 in the data set with human tyrosinase (time 7 min); 0.0675 with human tyrosinase (time 8 min); 0.0755 with human tyrosinase (time 9 min); 0.0845 with human tyrosinase (time 10 min); 0.0935 with human tyrosinase (time 11 min). Besides, the “OD at 490 nm” value in the data set on human tyrosinase (time 12 min) was 0.1015; in the data set with human tyrosinase (time 13 min) it was 0.1090; in the data set on human tyrosinase (time 14 min), 0.1165; in the data set with human tyrosinase (time 15 min), 0.1255; in the data set with human tyrosinase (time 16 min), 0.1355; in the data set on human tyrosinase (time 17 min) it was 0.1405. Further, the “OD at 490 nm” value with human tyrosinase (time 18 min) came to 0.1495; in the data set with human tyrosinase (time 19 min), 0.1575; with human tyrosinase (time 20 min) it was 0.1665. The same molecule returned a higher non-cytotoxic concentration with NHEM culture of 300 µM. Besides, the “Melanin synthesis (μg/ml)” value in data set [1] was 9.2 μg/ml (2×) and 9.4 μg/ml. Moreover, the “Melanin synthesis, Mean” value in data set [1] is 9.3 µg/mL.

Molecule `Oc1ccc(OC2C(O)CCCC2(F)F)cc1` (racemic) [Compound 16] came in with a higher non-cytotoxic concentration with NHEM culture of 300 µM. Also, in data set [1], the “Melanin synthesis (μg/ml)” value was 7.9 μg/ml and 8.2 μg/ml (2×); the “Melanin synthesis, Mean” value was determined as 8.1 µg/mL.

`Oc1ccc(OC2CCCCO2)cc1` (stereo not drawn) [Deoxyarbutin, deoxyarbutin, reference compound]: the “Inhibitor efficacy (%)” value with human tyrosinase (T = 20 min) amounted to 9.4%. In addition, the “OD at 490 nm” value in the data set with human tyrosinase (time 0 min) amounted to 0.0000; in the data set on human tyrosinase (time 1 min) it was 0.0100; in the data set on human tyrosinase (time 2 min) it was 0.0195; with human tyrosinase (time 3 min) it was 0.0290; in the data set with human tyrosinase (time 4 min), 0.0385; in the data set with human tyrosinase (time 5 min), 0.0480. For the same molecule, the “OD at 490 nm” value turned out to be 0.0585 in the data set with human tyrosinase (time 6 min); 0.0695 in the data set on human tyrosinase (time 7 min); 0.0800 in the data set with human tyrosinase (time 8 min); 0.0935 with human tyrosinase (time 9 min); 0.1035 in the data set with human tyrosinase (time 10 min); 0.1155 with human tyrosinase (time 11 min). Further, the “OD at 490 nm” value is 0.1265 in the data set with human tyrosinase (time 12 min); 0.1385 with human tyrosinase (time 13 min); 0.1500 with human tyrosinase (time 14 min); 0.1615 in the data set on human tyrosinase (time 15 min); 0.1735 in the data set on human tyrosinase (time 16 min); 0.1846 in the data set on human tyrosinase (time 17 min). In addition, the “OD at 490 nm” value in the data set on human tyrosinase (time 18 min) is 0.1975; in the data set on human tyrosinase (time 19 min) it was 0.2095; in the data set with human tyrosinase (time 20 min), 0.2220.
